Experimental data reported in paper PMC9694965, “Design of 4-Substituted Sulfonamidobenzoic Acid Derivatives Targeting Coxsackievirus B3” (Life, 2022).

Assays:
[1] = system: Coxsackievirus B3 (Nancy); experiment: Viral yield reduction assay in Vero cells; format: cell-based; conditions: for IC50: Enterovirus B, B3 / CVB3, viral yield reduction, Vero cells, CVB3 Nancy at m.o.i. 0.01, 24 h, read-out: IC50 (50% virus-inhibiting concentration); for SI (selectivity index, ratio CC50/IC50): viral yield reduction assay, CC50 24 h / IC50
Protocol: Coxsackievirus B3 (CVB3, strain Nancy) was obtained from the collection of viruses of the Pasteur Institute (St. Petersburg, Russia). The permissive cell line Vero (ATCC #CCL-81) was used in the study. Infectious titers (in a 50%-tissue culture infection dose, TCID50) were determined in Vero cells for CVB3 by endpoint dilution assay using the following procedure. Permissive cells were seeded into 96-wells plates in Eagles minimal essential medium (MEM) supplemented with 5% fetal bovine serum (FBS). After 24 h, the medium was aspirated, the wells were washed with saline, fresh MEM without FBS was added to the wells and the cells were infected with serial tenfold dilutions of virus stocks (100 µL per well, 4 wells for each dilution). The plates were incubated at +37 °C in 5% CO2 and observed daily for cytopathic effect (CPE). After 72 h the viral titer was calculated in TCID50 using the method of Spearmen-Carber.
The antiviral activity of the compounds was evaluated using viral yield reduction assay. The respective permissive cell line Vero was seeded in MEM supplemented with 5% FBS in 24-well plates. When the cell confluence reached 100%, the compounds tested were dissolved in DMSO, and a series of three-fold dilutions of each compound in MEM without FBS was added to the cells, and incubated at 37 °C in 5% CO2. After 1 h, the media were discarded; equal volumes of fresh serial dilutions of each compound and viral suspension in MEM without FBS at […] were added. In control wells, only MEM without FBS was added. No compounds were added in the virus control wells. The plates were incubated at 4 °C for 1 h. The unbound virus was then washed away and, again, three-fold dilutions of each compound (the final concentration 50–0.6 µg/mL) in MEM without FBS were added to the wells. After 24 h of incubation at 37 °C in 5% CO2, the infectious titer of viral progeny (in TCID50) for each compound concentration, cell control, and virus control wells were determined in permissive cell lines by endpoint dilution assay as described above.
The titer of virus progeny was plotted against log concentration of the compounds tested to generate the dose–response curve. The 50% inhibition concentration (IC50) of each compound tested (i.e., the compound concentration that decreases the infectious viral progeny titer twice, as compared to the control wells) was calculated using a four-parameter logistic nonlinear regression model (GraphPad Prism 6.01).

CVB3 Nancy = experiment: Cytoprotection assay (MTT) in Vero cells infected with CVB3 Nancy; format: cell-based, Coxsackievirus B3; conditions: for EC50: Enterovirus B, Vero cells infected with CVB3 Nancy at m.o.i. 0.001, 72 h, MTT, read-out: EC50 (50% cytoprotective concentration); for SI (selectivity index, ratio CC50/IC50): cytoprotection assay, CC50 72 h / EC50
Protocol: (§1) Vero cells were seeded in 96-well plates in 24 h before the assay. On the assay day, the cells were washed with saline and tested compounds in appropriate concentrations (300–3 μg/mL) in MEM without FBS were added to cells. No compounds were added to virus control wells. The plates were incubated for 1 h at 37 °C at 5% CO2. The cells were then infected with CVB3 Nancy (m.o.i range of 1–0.001) and incubated for 72 h at 37 °C at 5% CO2. No virus was added to the cytotoxicity control wells. Cell viability was then assessed using an MTT test with the following procedure. The cells were washed with saline, and a solution of 3-(4,5-dimethylthiazolyl-2) 2,5-diphenyltetrazolium bromide (ICN Biochemicals Inc., Aurora, OH, USA) ([…]) in MEM was added to the wells (100 µL per well). After 2 h of incubation at 37 °C in 5% CO2, the supernatant from wells was discarded, and the formazan residue was dissolved in DMSO (100 µL per well). The optical density of cells was then measured on a Multiskan multifunctional reader (Thermo Fisher Scientific, Shanghai, China) at a wavelength of 540 nm.
The cytoprotective activity of compounds was considered to be their ability to increase the values of OD compared to control wells (using only a virus, without drugs). Based on the results obtained, the values of IC50, i.e., the concentration of compounds that result in 50% cells protection were calculated for m.o.i. 0.001 using GraphPad Prism 6.01 software.

[2] = Cytotoxicity assay (MTT) in Vero cells; format: cell-based; conditions: African green monkey; for CC50 at 24 h: 24 h incubation with the compound only; for CC50 at 72 h: 72 h incubation with the compound only
Protocol: as §1
The microtetrazolium test (MTT) was used to study the cytotoxicity of the compounds. The permissive cell line Vero was seeded in 96-well plates in Eagles minimal essential medium (MEM) supplemented with 10% FBS. After 24 h, the media were removed, and the wells were washed with saline. Compounds were dissolved in DMSO, and a series of two-fold dilutions of each compound in MEM without FBS were prepared and added to the cells in triplicates. […] The MTT was then performed as described above. Next, the optical density of cells was measured on a Multiskan multifunctional reader (Thermo Fisher Scientific, Shanghai, China) at a wavelength of 540 nm and plotted against the concentration of the compounds to generate the dose–response curve. The 50% cytotoxic dose (CC50) of each compound (i.e., the compound concentration that causes the death of 50% of cells in a culture, or decreases the optical density twice, as compared to the control wells) was calculated using a four-parameter logistic nonlinear regression model (GraphPad Prism 6.01).

Compound | IC50 [1] | melting point | EC50 (CVB3 Nancy) | SI (selectivity index, ratio CC50/IC50) (CVB3 Nancy) | CC50 at 24 h [2] | CC50 at 72 h [2] | SI (selectivity index, ratio CC50/IC50) [1]
CCOC(=O)c1ccc(NS(=O)(=O)c2ccc(NC(=O)c3ccccc3C(=O)O)cc2)cc1 [Compound 3, 2-((4-(N-(4-(Ethoxycarbonyl)phenyl)sulfamoyl)phenyl)carbamoyl)benzoic acid] | – | – | > 427 µM | >1 | – | > 640 µM | –
CCOC(=O)c1ccc(NS(=O)(=O)c2ccc(N3C(=O)c4ccccc4C3=O)cc2)cc1 [Compound 2b, Ethyl 4-(4-(1,3-dioxoisoindolin-2-yl)phenylsulfonamido)benzoate] | – | – | > 444 µM | <1 | – | 40 ± 4.12 µM | –
N#Cc1ccc(NS(=O)(=O)c2ccc(N3C(=O)c4ccccc4C3=O)cc2)cc1 [Compound 2d, N-(4-Cyanophenyl)-4-(1,3-dioxoisoindolin-2-yl)benzenesulfonamide] | – | 224 to 226 °C | 744 ± 67.3 µM | <1 | – | 625 ± 57.5 µM | –
CC(=O)Nc1ccc(NS(=O)(=O)c2ccc(N3C(=O)c4ccccc4C3=O)cc2)cc1 [Compound 2f] | – | 220 to 222 °C | > 689 µM | <1 | – | 181 ± 19.2 µM | –
NS(=O)(=O)c1ccc(NS(=O)(=O)c2ccc(N3C(=O)c4ccccc4C3=O)cc2)cc1 [Compound 2e, 4-(1,3-Dioxoisoindolin-2-yl)-N-(4-sulfamoylphenyl)benzenesulfonamide] | – | 261 to 263 °C | > 437 µM | <1 | – | 437 ± 35.1 µM | –
O=C(O)CCCNS(=O)(=O)c1ccc(N2C(=O)c3ccccc3C2=O)cc1 [Compound 2i, 4-(4-(1,3-Dioxoisoindolin-2-yl)phenylsulfonamido)butanoic acid] | 37.9 ± 1.08 µM | – | < 28.6 µM | >10 | 1260 ± 110 µM | 283 ± 31.1 µM | 33
NC(=O)c1ccc(NS(=O)(=O)c2ccc(N3C(=O)c4ccccc4C3=O)cc2)cc1 [Compound 2c, 4-(4-(1,3-Dioxoisoindolin-2-yl)phenylsulfonamido)benzamide] | – | 240 to 242 °C | > 475 µM | <1 | – | 472 ± 38.2 µM | –
O=C(O)C1CCN(S(=O)(=O)c2ccc(N3C(=O)c4ccccc4C3=O)cc2)CC1 [Compound 2g, 1-((4-(1,3-Dioxoisoindolin-2-yl)phenyl)sulfonyl)piperidine-4-carboxylic acid] | – | 207 to 210 °C | 12.3 ± 2.07 µM | >18.5 | – | > 228 µM | –

Second part, led by results:

IC50 [1] | melting point | Compound | EC50 (CVB3 Nancy) | SI (selectivity index, ratio CC50/IC50) (CVB3 Nancy) | CC50 at 24 h [2] | CC50 at 72 h [2] | SI (selectivity index, ratio CC50/IC50) [1]
11.1 ± 0.16 µM | 250 to 252 °C | O=C(O)c1ccc(NS(=O)(=O)c2ccc(N3C(=O)C4CC=CCC4C3=O)cc2)cc1 (stereo not shown) [Compound 7b, 4-(4-(1,3-Dioxo-3a,4,7,7a-tetrahydro-1H-isoindol-2(3H)-yl)phenylsulfonamido)benzoic acid] | < 8.67 µM | >54.6 | 933 ± 75.1 µM | 474 ± 38.5 µM | –
19.6 ± 0.49 µM | 265 to 267 °C | O=C(O)c1ccc(NS(=O)(=O)c2ccc(N3C(=O)C4C5CCC(C5)C4C3=O)cc2)cc1 (stereo not shown) [Compound 7d, 4-(4-(1,3-Dioxohexahydro-1H-4,7-methanoisoindol-2(3H)-yl)phenylsulfonamido)benzoic acid] | < 8.39 µM | >81.1 | > 1140 µM | 681 ± 54.8 µM | >58
– | 284 to 286 °C | O=C(O)c1ccc(NS(=O)(=O)c2ccc(N3C(=O)c4cccc5cccc(c45)C3=O)cc2)cc1 [Compound 7e, 4-(4-(1,3-Dioxo-1H-benzo[de]isoquinolin-2(3H)-yl)phenylsulfonamido)benzoic acid] | > 635 µM | <1 | – | 531 ± 48.4 µM | –
